Test results from patent US6472391B2, “Nitrogen-containing heterocyclic compounds” (Millennium Pharmaceuticals, Inc., priority 1996, dated 2002).

Structure (SMILES) | melting point [°C]
COc1cc2ncnc(N3CCN(C(=S)NCc4ccncc4)CC3)c2cc1OC [Compound 270, 4-(6,7-Dimethoxy-4-quinazolinyl)-N-(4-picolyl)-1-piperazinethiocarboxamide] | 236 to 239
COc1cc2ncnc(N3CCN(C(=S)Nc4ccc5c(O)nnc(O)c5c4)CC3)c2cc1OC [Compound 99, N-(1,4-Dihydroxy-6-phthalazinyl)-4-(6,7-dimethoxy-4-quinazolinyl)-1-piperazinethiocarboxamide] | 153 to 155
COc1cc2ncnc(N3CCN(C(=O)NCc4ccc(N(C)C)cc4)CC3)c2cc1OC [Compound 223, 4-(6,7-Dimethoxy-4-quinazolinyl)-N-(4-dimethylaminobenzyl)-1-piperazinecarboxamide] | 188 to 190
COc1cc2ncnc(N3CCN(C(=S)Nc4ccc(Oc5ccc([N+](=O)[O-])cc5)cc4)CC3)c2cc1OC [Compound 62, 4-(6,7-Dimethoxy-4-quinazolinyl)-N-[4-(4-nitrophenoxy)phenyl]-1-piperazinethiocarboxamide] | 204 to 207
O=C(Nc1ccc(Oc2ccccc2)cc1)N1CCN(c2ncnc3ccc(I)cc23)CC1 [Compound 305, 4-(6-Iodo-4-quinazolinyl)-N-(4-phenoxyphenyl)-1-piperazinecarboxamide] | 184 to 185
CCCCOc1ccc(NC(=O)N2CCN(c3ncnc4cc(OC)c(OC)cc34)CC2)cc1 [Compound 58, N-(4-Butoxyphenyl)-4-(6,7-dimethoxy-4-quinazolinyl)-1-piperazinecarboxamide] | 213 to 214
CCC[C@H]1CC[C@H](c2ccc(NC(=S)N3CCN(c4ncnc5cc(OC)c(OC)cc45)CC3)cc2)CC1 [Compound 169, 4-(6,7-Dimethoxy-4-quinazolinyl)-N-[trans-4-(4-propylcyclohexyl)phenyl]-1-piperazinethiocarboxamide] | 106 to 109

Continued, values first:

melting point [°C] | Structure (SMILES)
147 to 148 | COc1ccc(CNC(=O)N2CCN(c3ncnc4cc(OC)c(OC)cc34)CC2)cc1 [Compound 198, 4-(6,7-Dimethoxy-4-quinazolinyl)-N-(4-methoxybenzyl)-1-piperazinecarboxamide]
218 to 220 | CCCOc1ccc(NC(=O)N2CCN(c3ncnc4cc(OC)c(OC)cc34)CC2)cc1 [Compound 201, 4-(6,7-Dimethoxy-4-quinazolinyl)-N-(4-propoxyphenyl)-1-piperazinecarboxamide]
186 to 187 | COc1cc2ncnc(N3CCN(C(=O)Nc4ccccc4Cl)CC3)c2cc1OC [Compound 38, N-(2-Chlorophenyl)-4-(6,7-dimethoxy-4-quinazolinyl)-1-piperazinecarboxamide]
190 to 192 | COc1cc2ncnc(N3CCN(C(=O)Nc4ccc(OC(F)F)cc4)CC3)c2cc1OC [Compound 158, N-(4-Difluoromethoxyphenyl)-4-(6,7-dimethoxy-4-quinazolinyl)-1-piperazinecarboxamide]
239 to 241 | COc1cc2ncnc(N3CCN(C(=O)Nc4ccsc4)CC3)c2cc1OC [Compound 257, 4-(6,7-Dimethoxy-4-quinazolinyl)-N-(3-thienyl)-1-piperazinecarboxamide]
251 to 252 | CCc1ccc(NC(=O)N2CCN(c3ncnc4cc(OC)c(OC)cc34)CC2)cc1 [Compound 18, N-(4-Ethylphenyl)-4-(6,7-Dimethoxy-4-quinazolinyl)-1-piperazinecarboxamide]
240 to 244 | COc1cc2ncnc(N3CCN(C(=O)Nc4cccc(C#N)c4)CC3)c2cc1OC [Compound 84, N-(3-Cyanophenyl)-4-(6,7-dimethoxy-4-quinazolinyl)-1-piperazinecarboxamide]
178 to 179 | CCOc1cc2c(N3CCN(C(=O)Nc4ccc(C#N)cc4)CC3)ncnc2cc1OC [Compound 347, N-(4-Cyanophenyl)-4-(6-ethoxy-7-methoxy-4-quinazolinyl)-1-piperazinecarboxamide]
